Data from patent US12139508B2, “Steroid derivative regulators, method for preparing the same, and uses thereof” (JIANGSU HANSOH PHARMACEUTICAL GROUP CO., LTD., priority 2018, dated 2024).
Where two headings read alike, the source gives them in different places.

Experiments:
GABA-A receptor = assay: 35S-TBPS binding assay (GABAA receptor binding ability test); parameters: species or system Sprague-Dawley rat; conditions: rat cerebral cortex cell membrane, 5 μM GABA, 2 nM 35S-TBPS; read-out: 35S-TBPS bindng test: IC50 on inhibiting the TBPS binding activity
Summary of the method: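 Rat (male Sprague-Dawley) cortical membranes in PBS were preincubated 5 min at 25° C with compound (from 1 μM, 3-fold, 8 points, 1% DMSO), then 5 μM GABA 5 min, then 2 nM ^35S-TBPS for 20 h at 4° C. Filter-bound counts gave % inhibition against DMSO and 10 μM P026-2 controls; IC50 by 4-parameter fit.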

[1] = Pharmacokinetic assay in Balb/c mice (plasma and brain tissue); assay type: in vivo; conditions: mouse, po, 5 mg/kg p.o., male Balb/c mice; for AUC(0-t): read-out: Area under curve AUC0-t; for AUC(0-inf): read-out: Area under curve AUC0-∞; for half-life: read-out: Half-life t1/2 (converted); for MRT: read-out: Mean residence time MRT; for Tmax: read-out: Peak time tmax; for Cmax: read-out: Plasma concentration Cmax
Experimental: Balb/c mice were used as test animals. The pharmacokinetic behavior in mice (plasma and brain tissue) of the compounds of Examples 2, 3, 5, 6, 9, 13, 59, 60, 61, 63, 71-74, 81, 103, 130, 134, 135, 137, 138, 140, 141, 143, 145 and 146 orally administered at a dose of 5 mg/kg was studied.
Each group had 24 male Balb/c mice. After an overnight fast, Balb/c mice were administered p.o. with the test compound at an administration dose of 5 mg/kg and an administration volume of 10 mL/kg.
0.2 ml of blood was taken from the heart before administration and at 0, 0.5, 1, 2, 4, 6, 8 and 24 hours after administration. The samples were stored in EDTA-K2 tubes, and centrifuged for 6 minutes at 4° C., 6000 rpm to separate the plasma. The plasma samples were stored at −80° C. The mice were sacrificed with CO2, and the whole brain tissue was taken out, weighed, placed in a 2 mL centrifuge tube and stored at −80° C.
1) 160 μL of acetonitrile was added to 40 μL of the plasma sample for precipitation, and then the mixture was centrifuged for 5-20 minutes at 3500×g.
2) 90 μL of acetonitrile containing the internal standard (100 ng/mL) was added to 30 μL of the plasma and brain homogenate samples for precipitation, and then the mixture was centrifuged for 8 minutes at 13000 rpm.
3) 70 μL of the treated supernatant was taken and added to 70 μL of water, and mixed by vortex for 10 minutes. 20 μL of the mixture was taken to analyze the concentration of the test compound by LC/MS/MS. LC/MS/MS analysis instrument: AB Sciex API 4000 Qtrap.
• Liquid chromatography condition: Shimadzu LC-20AD pump. • Chromatographic column: Agilent ZORBAX™ XDB-C18 (50×2.1 mm, 3.5 μm) (note: Aglient ZORBAX™ is a kind of column used in the reverse HPLC); • Mobile phase: Eluent A was 0.10% formic acid in water, and Eluent B was acetonitrile. • Flow rate: 0.4 mL/min • Elution time: 0-4.0 minutes, the eluent is as follows:
The main parameters of pharmacokinetics were calculated by WinNonlin 6.1.

C[C@@]1(O)CC[C@H]2[C@H](CC[C@@H]3[C@@H]2CC[C@@]2(C)[C@H]3[C@@H]3C[C@@H]3[C@@H]2C(=O)Cn2ccc(C(F)(F)F)n2)C1 [Example 6, 1-((2R,4aS,4bR,6aS,7S,7aS,8aR,8bR,8cR,10aR)-2-Hydroxy-2,6a-dimethyloctadecahydrocyclopropa[4,5]cyclopenta[1,2-a]phenanthren-7-yl)-2-(3-(trifluoromethyl)-1H-pyrazol-1-yl)ethan-1-one]
IC50 (GABA-A receptor): 3.1 nM
AUC(0-t) ([1]; brain tissue): 917 ng·h/mL
AUC(0-inf) ([1]; brain tissue): 964 ng·h/mL
half-life ([1]; brain tissue): 114 min
MRT ([1]; brain tissue): 144 min
Tmax ([1]; brain tissue): 30 min
Cmax ([1]; brain tissue): 464 ng/mL
AUC(0-t) ([1]; plasma): 409 ng·h/mL
AUC(0-inf) ([1]; plasma): 484 ng·h/mL
half-life ([1]; plasma): 191 min
MRT ([1]; plasma): 242 min
Tmax ([1]; plasma): 30 min
Cmax ([1]; plasma): 219 ng/mL

C[C@@]1(O)CC[C@H]2[C@H](CC[C@@H]3[C@@H]2CC[C@@]2(C)[C@H]3[C@@H]3C[C@@H]3[C@@H]2C(=O)Cn2ncnn2)C1 [Example 9, 1-((2R,4aS,4bR,6aS,7S,7aS,8aR,8bR,8cR,10aR)-2-Hydroxy-2,6a-dimethyloctadecahydrocyclopropa[4,5]cyclopenta[1,2-a]phenanthren-7-yl)-2-(2H-tetrazol-2-yl)ethan-1-one]
IC50 (GABA-A receptor): 21.3 nM
AUC(0-t) ([1]; brain tissue): 677 ng·h/mL
AUC(0-inf) ([1]; brain tissue): 680 ng·h/mL
half-life ([1]; brain tissue): 30 min
MRT ([1]; brain tissue): 54 min
Tmax ([1]; brain tissue): 30 min
Cmax ([1]; brain tissue): 605 ng/mL
AUC(0-t) ([1]; plasma): 775 ng·h/mL
AUC(0-inf) ([1]; plasma): 778 ng·h/mL
half-life ([1]; plasma): 54 min
MRT ([1]; plasma): 66 min
Tmax ([1]; plasma): 30 min
Cmax ([1]; plasma): 664 ng/mL

C[C@@H]1C[C@H](C(=O)Cn2ccc(C(F)(F)F)n2)[C@@]2(C)CC[C@H]3[C@@H](CC[C@@H]4C[C@](C)(O)CC[C@@H]43)[C@H]12 [Example 131, 1-((3R,5R,8R,9R,10S,13S,14S,15R,17S)-3-Hydroxy-3,13,15-trimethylhexadecahydro-1H-cyclopenta[a]phenanthren-17-yl)-2-(3-(trifluoromethyl)-1H-pyrazol-1-yl)ethan-1-one]
IC50 (GABA-A receptor): 8 nM

C[C@@H]1C[C@H](C(=O)Cn2ccnn2)[C@@]2(C)CC[C@H]3[C@@H](CC[C@@H]4C[C@](C)(O)CC[C@@H]43)[C@H]12 [Example 132, 1-((3R,5R,8R,9R,10S,13S,14S,15R,17S)-3-Hydroxy-3,13,15-trimethylhexadecahydro-1H-cyclopenta[a]phenanthren-17-yl)-2-(1H-1,2,3-triazol-1-yl)ethan-1-one]
IC50 (GABA-A receptor): 24.6 nM

C[C@@H]1C[C@H](C(=O)Cn2cc(C(=O)N3CCC3)cn2)[C@@]2(C)CC[C@H]3[C@@H](CC[C@@H]4C[C@](C)(O)CC[C@@H]43)[C@H]12 [Example 133, 2-(4-(Azetidine-1-carbonyl)-1H-pyrazol-1-yl)-1-((3R,5R,8R,9R,10S,13S,14S,15R,17S)-3-hydroxy-3,13,15-trimethylhexadecahydro-1H-cyclopenta[a]phenanthren-17-yl)ethan-1-one]
IC50 (GABA-A receptor): 17.8 nM

C[C@@H]1C[C@H](C(=O)CN2C(=O)CSC2=O)[C@@]2(C)CC[C@H]3[C@@H](CC[C@@H]4C[C@](C)(O)CC[C@@H]43)[C@H]12 [Example 136, 3-(2-((3R,5R,8R,9R,10S,13S,14S,15R,17S)-3-Hydroxy-3,13,15-trimethylhexadecahydro-1H-cyclopenta[a]phenanthren-17-yl)-2-oxoethyl)thiazolidine-2,4-dione]
IC50 (GABA-A receptor): 26.5 nM

CC[C@@H]1C[C@H](C(=O)Cn2nnc(C)n2)[C@@]2(C)CC[C@H]3[C@@H](CC[C@@H]4C[C@](C)(O)CC[C@@H]43)[C@H]12 [Example 139, 1-((3R,5R,8R,9R,10S,13S,14S,15R,17S)-15-Ethyl-3-hydroxy-3,13-dimethylhexadecahydro-1H-cyclopenta[a]phenanthren-17-yl)-2-(5-methyl-2H-tetrazol-2-yl)ethan-1-one]
IC50 (GABA-A receptor): 27 nM

CC[C@@H]1C[C@H](C(=O)Cn2nc(C#N)cc2C#N)[C@@]2(C)CC[C@H]3[C@@H](CC[C@@H]4C[C@](C)(O)CC[C@@H]43)[C@H]12 [Example 142, 1-(2-((3R,5R,8R,9R,10S,13S,14S,15R,17S)-15-Ethyl-3-hydroxy-3,13-dimethylhexadecahydro-1H-cyclopenta[a]phenanthren-17-yl)-2-oxoethyl)-1H-pyrazole-3,5-dicarbonitrile]
IC50 (GABA-A receptor): 16.2 nM

C[C@@]1(O)CC[C@H]2[C@H](CC[C@@H]3[C@@H]2CC[C@@]2(C)[C@H]3[C@H](C3CC3)C[C@@H]2C(=O)Cn2ccc(C(F)(F)F)n2)C1 [Example 144, 1-((3R,5R,8R,9R,10S,13S,14S,15S,17S)-15-Cyclopropyl-3-hydroxy-3,13-dimethylhexadecahydro-1H-cyclopenta[a]phenanthren-17-yl)-2-(3-(trifluoromethyl)-1H-pyrazol-1-yl)ethan-1-one]
IC50 (GABA-A receptor): 18.6 nM

C[C@@]1(O)CC[C@H]2[C@H](CC[C@@H]3[C@@H]2CC[C@@]2(C)[C@H]3[C@H](C3CC3)C[C@@H]2C(=O)Cn2cc(C#N)c(Cl)n2)C1 [Example 147, 3-Chloro-1-(2-((3R,5R,8R,9R,10S,13S,14S,15S,17S)-15-cyclopropyl-3-hydroxy-3,13-dimethylhexadecahydro-1H-cyclopenta[a]phenanthren-17-yl)-2-oxoethyl)-1H-pyrazole-4-carbonitrile]
IC50 (GABA-A receptor): 24.4 nM

CC[C@@H]1C[C@H](C(=O)Cn2ncnn2)[C@@]2(C)CC[C@H]3[C@@H](CC[C@@H]4C[C@](C)(O)CC[C@@H]43)[C@H]12 [Example 149, 1-((3R,5R,8R,9R,10S,13S,14S,15R,17S)-15-Ethyl-3-hydroxy-3,13-dimethylhexadecahydro-1H-cyclopenta[a]phenanthren-17-yl)-2-(2H-tetrazol-2-yl)ethan-1-one]
IC50 (GABA-A receptor): 25.6 nM

C[C@@H]1C[C@H](C(=O)COc2cnc(C(F)(F)F)nc2)[C@@]2(C)CC[C@H]3[C@@H](CC[C@@H]4C[C@](C)(O)CC[C@@H]43)[C@H]12 [Example 150, 1-((3R,5R,8R,9R,10S,13S,14S,15R,17S)-3-Hydroxy-3,13,15-trimethylhexadecahydro-1H-cyclopenta[a]phenanthren-17-yl)-2-((2-(trifluoromethyl)pyrimidin-5-yl)oxy)ethan-1-one]
IC50 (GABA-A receptor): 8.8 nM

C[C@@]1(O)CC[C@H]2[C@H](CC[C@@H]3[C@@H]2CC[C@@]2(C)[C@H]3[C@H](C3CC3)C[C@@H]2C(=O)COc2cnc(C(F)(F)F)nc2)C1 [Example 151, 1-((3R,5R,8R,9R,10S,13S,14S,15S,17S)-15-Cyclopropyl-3-hydroxy-3,13-dimethylhexadecahydro-1H-cyclopenta[a]phenanthren-17-yl)-2-((2-(trifluoromethyl)pyrimidin-5-yl)oxy)ethan-1-one]
IC50 (GABA-A receptor): 26.2 nM

C[C@@]1(O)CC[C@H]2[C@H](CC[C@@H]3[C@@H]2CC[C@]2(C)[C@@H](C(=O)COCC4(C#N)CC4)CC[C@@H]32)C1 [Example 166, 1-((2-((3R,5R,8R,9R,10S,13S,14S,17S)-3-Hydroxy-3,13-dimethylhexadecahydro-1H-cyclopenta[a]phenanthren-17-yl)-2-oxoethoxy)methyl)cyclopropane-1-carbonitrile]
IC50 (GABA-A receptor): 38.4 nM
